Test results: the supplement of paper PMC10307832

Columns and labels:
Test in all cases: relative viability (nuclei count vs DMSO), 5 days (fraction); higher = more cells survive
[1] = compound: C1COCCN1C2=NC(=NC3=C2OC4=C3C=CC=N4)C5=CC(=CC=C5)NC(=O)C6=CN=C(C=C6)N + COc1cc2c(Oc3ccc(NC(=O)C4(C(=O)Nc5ccc(F)cc5)CC4)cc3F)ccnc2cc1OCCCN1CCOCC1 [Foretinib] (partner 0.25 µM)
Procedure, shortened: (§1)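 Relative viability divides the nuclei count in treated wells by that in vehicle wells. Lung cancer cell lines were seeded in 1536-well plates, dosed by pin tool the next day, and fixed and stained after 5 days in one step with final 0.05% Triton X-100, 1% formaldehyde and 1 ug/ml Hoechst. Dosing was a single drug or a fixed anchor-drug dose plus five library-drug doses (not always all listed) in √10 steps, and values are medians of duplicate plates imaged at 4×.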

Entinostat + Tozasertib = compound: Nc1ccccc1NC(=O)c1ccc(CNC(=O)OCc2cccnc2)cc1 [Entinostat] + Cc1cc(Nc2cc(N3CCN(C)CC3)nc(Sc3ccc(NC(=O)C4CC4)cc3)n2)n[nH]1 [Tozasertib] (partner 0.1 µM)
Procedure, shortened: as §1

SGI-1776 + Pemetrexed = compound: CN1CCC(CNc2ccc3ncc(-c4cccc(OC(F)(F)F)c4)n3n2)CC1 [SGI-1776] + Nc1nc2[nH]cc(CCc3ccc(C(=O)N[C@@H](CCC(=O)O)C(=O)O)cc3)c2c(=O)[nH]1 [Pemetrexed] (partner 0.2 µM)
Procedure, shortened: as §1

Entinostat + Decitabine = compound: Nc1ccccc1NC(=O)c1ccc(CNC(=O)OCc2cccnc2)cc1 [Entinostat] + Nc1ncn([C@H]2C[C@H](O)[C@@H](CO)O2)c(=O)n1 [Decitabine] (partner 2 µM)
Procedure, shortened: as §1

| Cell Line | relative viability ([1]; first compound 0.02 µM) | relative viability ([1]; first compound 0.06325 µM) | relative viability ([1]; first compound 0.2 µM) | relative viability ([1]; first compound 0.6325 µM) | relative viability ([1]; first compound 2 µM) | relative viability (Entinostat + Tozasertib; first compound 0.02 µM) | relative viability (Entinostat + Tozasertib; first compound 0.06325 µM) | relative viability (Entinostat + Tozasertib; first compound 0.2 µM) | relative viability (Entinostat + Tozasertib; first compound 0.6325 µM) | relative viability (Entinostat + Tozasertib; first compound 2 µM) | relative viability (SGI-1776 + Pemetrexed; first compound 0.08 µM) | relative viability (SGI-1776 + Pemetrexed; first compound 0.8 µM) | relative viability (SGI-1776 + Pemetrexed; first compound 2.53 µM) | relative viability (SGI-1776 + Pemetrexed; first compound 8 µM) | relative viability (Entinostat + Decitabine; first compound 0.02 µM) | relative viability (Entinostat + Decitabine; first compound 0.06325 µM) | relative viability (Entinostat + Decitabine; first compound 0.2 µM) | relative viability (Entinostat + Decitabine; first compound 0.6325 µM) | relative viability (Entinostat + Decitabine; first compound 2 µM) |
| --- | --- | --- | --- | --- | --- | --- | --- | --- | --- | --- | --- | --- | --- | --- | --- | --- | --- | --- | --- |
| NCI-H647 | 1.17 | 1.16 | 1.13 | 1.14 | 0.667 | 0.32 | 0.214 | 0.228 | 0.0707 | 0.0371 | 0.172 | 0.151 | 0.166 | 0.145 | 0.382 | 0.256 | 0.258 | 0.166 | 0.166 |
| SK-LU-1 | 0.826 | 0.916 | 0.83 | 0.725 | 0.557 | 0.335 | 0.337 | 0.278 | 0.182 | 0.169 | 1.02 | 0.932 | 1.1 | 0.781 | 0.643 | 0.805 | 0.638 | 0.473 | 0.418 |
| NCI-H441 | 1.13 | 0.918 | 0.786 | 0.84 | 0.493 | 0.593 | 0.483 | 0.425 | 0.275 | 0.224 | 0.276 | 0.258 | 0.299 | 0.26 | 0.237 | 0.284 | 0.264 | 0.138 | 0.132 |
| COR-L 105 | 0.915 | 1.28 | 0.764 | 0.969 | 0.777 | 0.372 | 0.291 | 0.309 | 0.273 | 0.286 | 1.06 | 1.14 | 1.11 | 1.09 | 0.64 | 0.641 | 0.595 | 0.466 | 0.337 |
